Three molecules from ChEMBL document CHEMBL3739332, “γ- and δ-Lactams from the Leaves of Clausena lansium” (2015) can be followed below.

Calls of active or inactive are those of the source. No cut-off for these calls is given here.

One assay has as its system Cortical neurone. In words: Neuroprotective activity in Sprague-Dawley rat cortical neurons assessed as inhibition of amyloid beta (25 to 35 residues)-induced neurotoxicity compound pretreated at 10 to 50 uM for 2 hrs followed by addition of 10 uM amyloid beta (25 to 35 residues) for 40 hrs by MTT assay. It counts as functional. In general terms: Tetrazolium dyes change colour on reduction, which living cells bring about.

Assay [1] can be described thus: Neuroprotective activity in Sprague-Dawley rat cortical neurons assessed as inhibition of amyloid beta (25 to 35 residues)-induced neurotoxicity compound pretreated at 50 uM for 2 hrs followed by addition of 10 uM amyloid beta (25 to 35 residues) for 40 hrs by MTT assay. It counts as functional, Cortical neurone.

For the molecule `CO[C@H](c1ccccc1)[C@@H]1[C@@H](c2ccccc2)[C@H](O)C(=O)N1C`, the inhibition entry in the assay with Cortical neurone was “inactive”. On to `CO[C@@H](c1ccccc1)[C@@H]1[C@@H](c2ccccc2)[C@H](O)C(=O)N1C`, for which the “inhibition (INH)” value in assay [1] turned out to be 22.24%.

For `CO[C@H](c1ccccc1)[C@H]1[C@H](c2ccccc2)[C@H](O)C(=O)N1C`, the inhibition entry with Cortical neurone was “inactive”.
